From PMC8037910, “Effect of Chronic Administration of 5-(3-chlorophenyl)-4-Hexyl-2,4 -Dihydro-3H-1,2,4-Triazole-3-Thione (TP-315)—A New Anticonvulsant Drug Candidate—On Living Organisms” (International Journal of Molecular Sciences, 2021)
Read-outs that look alike come from different tables or passages of the source.

How the values were obtained:
[1] = test system: 6 Hz psychomotor seizure model; parameters: method as in PMID 32253957; conditions: mice, cited from earlier work
[2] = target: T1, CYP3A5 (Homo sapiens, UniProt P20815); assay: Vivid CYP450 screening kit, CYP3A5; assay type: biochemical; conditions: 0.015 μg/mL, 20 min incubation, p > 0.05
T1 construct: purchased Thermo Fisher Scientific
Experimental: (§1) Possible inhibitory effect of TP-315 on the catalytic activity of human cytochrome CYP450 enzymes was tested using Vivid CYP450 screening kits (Thermo Fisher Scientific, Waltham, MA, USA) according to the manufacturer’s standard procedure (Vivid BOMCC substrate CYP2B6 blue, Vivid DBOMF substrate CYP3A4 green, Vivid DBOMF substrate CYP3A5 green, Vivid EOMCC substrate CYP2C19 blue, Vivid MOBFC substrate CYP2D6 cyan). The experiment was carried out in the endpoint test mode (reading after 20 min of incubation). The test compound was dissolved in DMSO (starting concentrations, 2.5× concentrated); to avoid the influence of the solvent on the enzyme activity, the results were compared with the solvent control. The influence of TP-315 on the activity of selected enzymes was tested at concentrations of 0.015, 0.1, 0.5, 1, 2.5, 5, and 10 μg/mL. The positive control compounds (inhibitors) were miconazole (for CYP2C19 and CYP2B6), quinidine (for CYP2D6), and ketoconazole (for CYP3A4 and CYP3A5). Inhibitor concentrations were selected according to the manufacturer’s recommendations to achieve ≥90% inhibition. All inhibitors were obtained from Sigma-Aldrich (St. Louis, MO, USA). The BioTek Synergy H1 reader (BioTek Instruments, Inc., USA) was used to read the fluorescence according to the manufacturer’s guidelines. The tests were performed in duplicate.

[3] = target: T2, CYP2B6 (Homo sapiens, UniProt P20813); assay: Vivid CYP450 screening kit, CYP2B6; assay type: biochemical; conditions: 0.015 μg/mL, 20 min incubation, p > 0.05
T2 construct: purchased Thermo Fisher Scientific
T2 sequence (P20813 1-491): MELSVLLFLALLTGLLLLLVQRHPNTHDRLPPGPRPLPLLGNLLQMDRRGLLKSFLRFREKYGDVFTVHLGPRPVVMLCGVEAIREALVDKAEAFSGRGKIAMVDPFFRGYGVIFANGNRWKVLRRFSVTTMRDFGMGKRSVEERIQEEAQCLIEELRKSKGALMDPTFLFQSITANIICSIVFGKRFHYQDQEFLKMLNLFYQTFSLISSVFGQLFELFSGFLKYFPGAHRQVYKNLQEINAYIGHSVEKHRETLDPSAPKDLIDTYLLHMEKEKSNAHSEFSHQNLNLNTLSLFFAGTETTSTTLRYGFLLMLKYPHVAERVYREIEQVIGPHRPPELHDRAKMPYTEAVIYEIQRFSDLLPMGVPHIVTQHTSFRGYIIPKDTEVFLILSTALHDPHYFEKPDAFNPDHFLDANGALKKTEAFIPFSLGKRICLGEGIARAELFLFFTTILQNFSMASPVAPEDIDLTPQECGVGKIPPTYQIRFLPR
Experimental: as §1

[4] = test system: Albino Swiss mice; assay: Morphological blood parameters after chronic administration; assay type: in vivo; conditions: 47.6 mg/kg i.p. for 14 days
Experimental: (§2) The experiments were carried out on adult male Albino Swiss mice weighing 20 ± 5 g. […] The mice from the control group (8 mice) received 0.9% NaCl solution i.p. once daily for 14 days.
(§3) After completion of the experimental procedure (on the 15th day—24h after the last injection), the animals were decapitated. Their livers and kidneys were collected for histopathological examination, while blood was drawn for biochemical and morphological tests and for HPLC-FL determination of TP-315 in serum.
For the determination of biochemical parameters (ALT, AST, GGT, creatinine, urea), whole blood was collected in clotting activator tubes (Sarstadt, Nümbrecht, Germany). To obtain serum, blood tubes were centrifuged at 4200 RPM for 10 min. Biochemical determinations were performed on an ERBA XL 640 analyzer (ERBA Mannheim, Germany) according to the manufacturer’s standard procedure. Whole blood for the determination of morphological parameters was collected in ethylenediaminetetraacetic acid (EDTA) tubes (Sarstadt, Nümbrecht, Germany). Morphological parameters were determined on the MYTHIC 18 Cormay analyzer (Cormay, Lublin, Poland) according to the manufacturer’s standard procedure.

[5] = target: T3, CYP2C19 (Homo sapiens, UniProt P33261); assay: Vivid CYP450 screening kit, CYP2C19; assay type: biochemical; conditions: 0.015 µg/mL, 20 min incubation, p < 0.05
T3 construct: purchased Thermo Fisher Scientific
Experimental: as §1

[6] = target: T4, CYP3A4 (Homo sapiens, UniProt P08684); assay: Vivid CYP450 screening kit, CYP3A4; assay type: biochemical; conditions: 0.015 μg/mL, 20 min incubation, p > 0.05
T4 construct: purchased Thermo Fisher Scientific
Experimental: as §1

[7] = test system: Albino Swiss mice; assay: Histopathological examination of kidneys and liver after chronic administration; assay type: in vivo; conditions: 47.6 mg/kg i.p. for 14 days, H&E staining, vs control group
Experimental: as §2, §3
The kidneys and livers of mice from the control and experimental groups were subjected to histopathological evaluation. The organs were fixed in 10% buffered formalin at pH 7.2 and then fixed with increasing concentrations of alcohol solutions, acetone, and xylene in paraffin blocks using a tissue processor (Leica TP-20, Leica Biosystems, Wetzlar, Germany). 4 μm thick tissue sections cut with a sledge microtome (Leica SR-200, Leica Biosystems, Wetzlar, Germany) were transferred onto slides. The preparations for the histopathological samples were stained with hematoxylin and eosin and evaluated under a light microscope (Nikon Eclipse E-600, […]). Reagents were purchased from Sigma-Aldrich (St. Louis, MO, USA).

[8] = target: T5, CYP2D6 (Homo sapiens, UniProt P10635); assay: Vivid CYP450 screening kit, CYP2D6; assay type: biochemical; conditions: 0.015 μg/mL, 20 min incubation, p > 0.05
T5 construct: purchased Thermo Fisher Scientific
Experimental: as §1

T1 sequence (P20815 whole entry): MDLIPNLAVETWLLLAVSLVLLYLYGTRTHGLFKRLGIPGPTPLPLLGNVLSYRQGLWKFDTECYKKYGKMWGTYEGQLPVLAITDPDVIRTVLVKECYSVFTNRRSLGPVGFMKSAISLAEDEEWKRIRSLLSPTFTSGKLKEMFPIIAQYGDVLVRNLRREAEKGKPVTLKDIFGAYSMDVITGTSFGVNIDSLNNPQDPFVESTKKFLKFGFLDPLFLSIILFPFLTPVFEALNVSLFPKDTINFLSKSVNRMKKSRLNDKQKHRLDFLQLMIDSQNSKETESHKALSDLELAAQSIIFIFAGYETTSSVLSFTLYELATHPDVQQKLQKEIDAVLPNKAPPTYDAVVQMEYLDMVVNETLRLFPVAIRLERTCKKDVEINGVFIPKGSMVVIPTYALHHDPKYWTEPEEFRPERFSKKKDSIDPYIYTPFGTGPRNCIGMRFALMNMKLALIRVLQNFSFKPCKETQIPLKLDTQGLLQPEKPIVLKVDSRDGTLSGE
T5 sequence (P10635 whole entry): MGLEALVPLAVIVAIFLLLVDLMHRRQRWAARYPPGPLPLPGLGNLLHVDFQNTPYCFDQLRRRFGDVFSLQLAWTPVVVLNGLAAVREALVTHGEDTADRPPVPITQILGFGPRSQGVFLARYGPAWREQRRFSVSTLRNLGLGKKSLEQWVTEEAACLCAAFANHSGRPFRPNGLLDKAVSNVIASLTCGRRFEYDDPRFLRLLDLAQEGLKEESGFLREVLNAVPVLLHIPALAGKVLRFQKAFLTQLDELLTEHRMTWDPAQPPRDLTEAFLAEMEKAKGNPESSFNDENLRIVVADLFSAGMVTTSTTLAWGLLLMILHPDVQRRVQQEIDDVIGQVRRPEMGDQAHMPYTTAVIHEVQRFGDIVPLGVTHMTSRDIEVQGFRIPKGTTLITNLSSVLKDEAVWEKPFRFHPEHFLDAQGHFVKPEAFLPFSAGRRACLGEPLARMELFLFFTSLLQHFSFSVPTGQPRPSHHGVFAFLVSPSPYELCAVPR
T4 sequence (P08684 whole entry): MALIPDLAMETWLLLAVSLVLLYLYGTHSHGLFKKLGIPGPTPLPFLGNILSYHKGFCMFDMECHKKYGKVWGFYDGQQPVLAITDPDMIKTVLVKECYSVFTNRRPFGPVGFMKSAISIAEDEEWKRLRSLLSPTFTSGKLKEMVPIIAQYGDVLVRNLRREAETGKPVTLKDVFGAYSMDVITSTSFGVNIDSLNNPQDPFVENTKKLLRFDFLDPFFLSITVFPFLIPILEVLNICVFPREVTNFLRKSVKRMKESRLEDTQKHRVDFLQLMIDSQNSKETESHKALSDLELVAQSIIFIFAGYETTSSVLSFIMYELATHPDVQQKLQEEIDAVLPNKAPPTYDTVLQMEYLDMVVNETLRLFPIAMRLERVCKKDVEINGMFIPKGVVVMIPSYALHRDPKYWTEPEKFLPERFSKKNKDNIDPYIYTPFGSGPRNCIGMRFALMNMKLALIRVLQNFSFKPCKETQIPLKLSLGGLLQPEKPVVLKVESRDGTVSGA
T3 sequence (P33261 whole entry): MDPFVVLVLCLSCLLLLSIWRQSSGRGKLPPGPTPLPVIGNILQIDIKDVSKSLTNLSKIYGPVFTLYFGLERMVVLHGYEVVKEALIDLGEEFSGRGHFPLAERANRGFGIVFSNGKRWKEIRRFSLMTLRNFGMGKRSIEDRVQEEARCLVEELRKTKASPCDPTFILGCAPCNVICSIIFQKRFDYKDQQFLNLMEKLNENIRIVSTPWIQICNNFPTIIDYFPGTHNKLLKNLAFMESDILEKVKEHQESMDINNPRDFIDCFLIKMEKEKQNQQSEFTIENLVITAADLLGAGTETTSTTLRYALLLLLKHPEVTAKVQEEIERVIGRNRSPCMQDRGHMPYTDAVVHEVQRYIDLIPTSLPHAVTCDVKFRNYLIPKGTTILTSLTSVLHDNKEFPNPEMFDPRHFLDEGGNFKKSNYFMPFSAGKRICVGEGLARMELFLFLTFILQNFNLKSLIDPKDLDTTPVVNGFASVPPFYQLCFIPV

## CCCCCCn1c(-c2cccc(Cl)c2)n[nH]c1=S [TP-315, 5-(3-Chlorophenyl)-4-hexyl-2,4-dihydro-3H-1,2,4-triazole-3-thione]
[1]; pretreatment time 15 min
  Anticonvulsant Activity in 6 Hz Test ED50 ± SEM: 61.3 ± 10.1 mg/kg
[1]; pretreatment time 30 min
  Anticonvulsant Activity in 6 Hz Test ED50 ± SEM: 59.7 ± 6.8 mg/kg
[1]; pretreatment time 60 min
  Anticonvulsant Activity in 6 Hz Test ED50 ± SEM: 68.1 ± 11.0 mg/kg
[1]; pretreatment time 120 min
  Anticonvulsant Activity in 6 Hz Test ED50 ± SEM: 136.2 ± 18.3 mg/kg
[2]
  Inhibition of CYP3A5 activity compared to the control: did not statistically significantly inhibit
[3]
  Inhibition of CYP2B6 activity compared to the control: did not statistically significantly inhibit
[4]; unpaired t-test p > 0.05
  Effect of chronic administration on hematological parameters vs control group: does not cause disturbances in the white blood cell and red cell systems
[4]; examined group, mean ± SD
  BAS, basophils: 0.44 ± 0.19%
  EOS, eosinophile: 6.54 ± 2.05%
  HCT, hematocrit: 41.08 ± 3.65%
  HGB, hemoglobin concentration: 13.88 ± 1.28 g/dL
  LYM, lymphocytes: 65.7 ± 6.96%
  MCH, mean corpuscular hemoglobin: 16.62 ± 0.38 pg
  MCHC, mean corpuscular hemoglobin concentration: 33.84 ± 0.46 g/dL
  MCV, mean corpuscular volume: 49.1 ± 20.06 µm3
  MON, monocytes: 4.04 ± 1.17%
  MPV, mean platelet volume: 5.08 ± 0.25 µm3
  NEU, neutrophils: 23.28 ± 7.19%
  PCT, plateletcrit: 0.53 ± 0.16%
  PDW, platelet distribution width: 15.24 ± 0.17
  PLT, platelet: 1034.8 ± 268.44 10*3/µL
  RBC, red blood cells: 8.37 ± 0.84 10*6/μL
  RDW-CV, red blood cell distribution width: 13.46 ± 0.56%
  RDW-SD, red blood cell distribution width standard deviation: 28.46 ± 1.36 µm3
  WBC, white blood cells: 4.25 ± 1.2 10*3/µL
[5]
  Inhibition of CYP2C19 activity compared to the control: statistically significantly inhibited
[6]
  Inhibition of CYP3A4 activity compared to the control: did not statistically significantly inhibit
[7]
  Histopathological examination of kidneys: no differences in the microscopic structure of kidneys
  Histopathological examination of liver: normal organ without pathological changes
[8]
  Inhibition of CYP2D6 activity compared to the control: did not statistically significantly inhibit
